{
  "source": "ChEMBL document CHEMBL1155925",
  "about": "“Synthesis and evaluation of acylguanidine FXa inhibitors” (Bioorg Med Chem Lett, 2008)",
  "key": {"Coagulation factor X": {"target": "Coagulation factor X (Homo sapiens, UniProt P00742)", "sequence (P00742 41-179 limits assumed)": "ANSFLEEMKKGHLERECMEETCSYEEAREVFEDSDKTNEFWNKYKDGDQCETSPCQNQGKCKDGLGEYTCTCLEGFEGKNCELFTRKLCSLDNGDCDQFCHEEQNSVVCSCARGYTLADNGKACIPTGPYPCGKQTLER", "sequence (P00742 235-488 limits assumed)": "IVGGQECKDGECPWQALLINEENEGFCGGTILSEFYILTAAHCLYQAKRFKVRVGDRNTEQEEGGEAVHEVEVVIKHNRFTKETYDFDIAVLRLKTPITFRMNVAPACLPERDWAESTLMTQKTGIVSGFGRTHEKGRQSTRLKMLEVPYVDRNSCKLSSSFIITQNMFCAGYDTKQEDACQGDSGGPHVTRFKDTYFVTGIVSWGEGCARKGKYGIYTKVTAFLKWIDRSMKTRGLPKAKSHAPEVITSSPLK", "assay": "Inhibition of human factor 10a"}, "Plasma": {"system": "Plasma", "assay": "Anticoagulant activity in human plasma assessed as concentration required to double prothrombin-based clotting time", "type": "functional"}},
  "data": [
    {"smiles": "Cc1cccc(N/C(=N\\C(=O)c2sc(C)nc2C)N[C@H]2CCCCN(CC(=O)N3CCCC3)C2=O)c1", "values": [
      {"measurement": "IC50", "setting": "Coagulation factor X", "result": 462, "unit": "nM"},
      {"measurement": "Activity", "setting": "Plasma", "result": ">50", "unit": "µM"}
    ]},
    {"smiles": "COc1ccc(N/C(=N\\C(=O)C2CCN(C(=O)c3ccccc3)CC2)N[C@H]2CCCCN(CC(=O)N3CCCC3)C2=O)cc1", "values": [
      {"measurement": "IC50", "setting": "Coagulation factor X", "result": 506, "unit": "nM"},
      {"measurement": "Activity", "setting": "Plasma", "result": 48, "unit": "µM"}
    ]},
    {"smiles": "Cc1cccc(N/C(=N\\C(=O)c2ccc(Cl)cc2)N[C@H]2CCCCN(CC(=O)N3CCCC3)C2=O)c1", "values": [
      {"measurement": "IC50", "setting": "Coagulation factor X", "result": 198, "unit": "nM"}
    ]},
    {"smiles": "COc1ccc(NC(=N[C@H]2CCCCN(CC(=O)N3CCCC3)C2=O)NC(=O)c2cc(Cl)cc(Cl)c2)cc1", "values": [
      {"measurement": "IC50", "setting": "Coagulation factor X", "result": 546, "unit": "nM"}
    ]},
    {"smiles": "Cc1cccc(NC(=N[C@H]2CCCCN(CC(=O)N3CCCC3)C2=O)NC(=O)c2ccc(N(C)C)cc2)c1", "values": [
      {"measurement": "IC50", "setting": "Coagulation factor X", "result": 517, "unit": "nM"}
    ]},
    {"smiles": "COc1ccc(N/C(=N\\C(=O)c2cccc(OC)c2)N[C@H]2CCCCN(CC(=O)N3CCCC3)C2=O)cc1", "values": [
      {"measurement": "IC50", "setting": "Coagulation factor X", "result": 193, "unit": "nM"}
    ]},
    {"smiles": "COc1cccc(C(=O)NC(=N[C@H]2CCCCN(CC(=O)N3CCCC3)C2=O)Nc2cccc(C)c2)c1", "values": [
      {"measurement": "IC50", "setting": "Coagulation factor X", "result": 276, "unit": "nM"}
    ]},
    {"smiles": "Cc1cc2cc(N/C(=N\\C(=O)c3sc(C)nc3C)N[C@H]3CCCCN(CC(=O)N4CCCC4)C3=O)ccc2o1", "values": [
      {"measurement": "IC50", "setting": "Coagulation factor X", "result": 17, "unit": "nM"},
      {"measurement": "Activity", "setting": "Plasma", "result": 42, "unit": "µM"}
    ]},
    {"smiles": "COc1ccc(C(=O)NC(=N[C@H]2CCCCN(CC(=O)N3CCCC3)C2=O)Nc2cccc(C)c2)cc1OC", "values": [
      {"measurement": "IC50", "setting": "Coagulation factor X", "result": 400, "unit": "nM"}
    ]},
    {"smiles": "COc1ccc(N/C(=N\\C(=O)c2ccc(OC)c(OC)c2)N[C@H]2CCCCN(CC(=O)N3CCCC3)C2=O)cc1", "values": [
      {"measurement": "IC50", "setting": "Coagulation factor X", "result": 494, "unit": "nM"}
    ]},
    {"smiles": "COc1ccc(NC(=N[C@H]2CCCCN(CC(=O)N3CCCC3)C2=O)NC(=O)c2cccc(Cl)c2)cc1", "values": [
      {"measurement": "IC50", "setting": "Coagulation factor X", "result": 267, "unit": "nM"}
    ]},
    {"smiles": "Cc1cccc(N/C(=N\\C(=O)c2ccno2)N[C@H]2CCCCN(CC(=O)N3CCCC3)C2=O)c1", "values": [
      {"measurement": "IC50", "setting": "Coagulation factor X", "result": 628, "unit": "nM"},
      {"measurement": "Activity", "setting": "Plasma", "result": 50, "unit": "µM"}
    ]},
    {"smiles": "Cc1cccc(N/C(=N\\C(=O)C2CCN(C(=O)c3ccccc3)CC2)N[C@H]2CCCCN(CC(=O)N3CCCC3)C2=O)c1", "values": [
      {"measurement": "IC50", "setting": "Coagulation factor X", "result": 1070, "unit": "nM"},
      {"measurement": "Activity", "setting": "Plasma", "result": ">50", "unit": "µM"}
    ]},
    {"smiles": "COc1ccc(NC(=N[C@H]2CCCCN(CC(=O)N3CCCC3)C2=O)NC(=O)c2cccc(F)c2)cc1", "values": [
      {"measurement": "IC50", "setting": "Coagulation factor X", "result": 256, "unit": "nM"}
    ]},
    {"smiles": "Cc1cccc(NC(=N[C@H]2CCCCN(CC(=O)N3CCCC3)C2=O)NC(=O)c2cccc(Cl)c2)c1", "values": [
      {"measurement": "IC50", "setting": "Coagulation factor X", "result": 371, "unit": "nM"}
    ]},
    {"smiles": "Cc1cc2cc(N/C(=N\\C(=O)c3ccccc3)N[C@H]3CCCCN(CC(=O)N4CCCC4)C3=O)ccc2o1", "values": [
      {"measurement": "Activity", "setting": "Plasma", "result": 48, "unit": "µM"}
    ]},
    {"smiles": "Cc1cccc(N/C(=N\\C(=O)c2ccc(F)cc2)N[C@H]2CCCCN(CC(=O)N3CCCC3)C2=O)c1", "values": [
      {"measurement": "IC50", "setting": "Coagulation factor X", "result": 222, "unit": "nM"}
    ]},
    {"smiles": "COc1ccc(N/C(=N\\C(=O)c2ccno2)N[C@H]2CCCCN(CC(=O)N3CCCC3)C2=O)cc1", "values": [
      {"measurement": "IC50", "setting": "Coagulation factor X", "result": 380, "unit": "nM"},
      {"measurement": "Activity", "setting": "Plasma", "result": 45, "unit": "µM"}
    ]},
    {"smiles": "Cc1cccc(NC(=N[C@H]2CCCCN(CC(=O)N3CCCC3)C2=O)NC(=O)c2cccc(F)c2)c1", "values": [
      {"measurement": "IC50", "setting": "Coagulation factor X", "result": 373, "unit": "nM"}
    ]},
    {"smiles": "Cc1cccc(NC(=N[C@H]2CCCCN(CC(=O)N3CCCC3)C2=O)NC(=O)c2ccccc2)c1", "values": [
      {"measurement": "IC50", "setting": "Coagulation factor X", "result": 245, "unit": "nM"}
    ]},
    {"smiles": "COc1ccc(NC(=N[C@H]2CCCCN(CC(=O)N3CCCC3)C2=O)NC(=O)c2ccc(N(C)C)cc2)cc1", "values": [
      {"measurement": "IC50", "setting": "Coagulation factor X", "result": 403, "unit": "nM"}
    ]},
    {"smiles": "COc1ccc(NC(=N[C@H]2CCCCN(CC(=O)N3CCCC3)C2=O)NC(=O)c2ccc(Cl)cc2)cc1", "values": [
      {"measurement": "IC50", "setting": "Coagulation factor X", "result": 294, "unit": "nM"}
    ]},
    {"smiles": "COc1cc(OC)cc(C(=O)/N=C(\\Nc2cccc(C)c2)N[C@H]2CCCCN(CC(=O)N3CCCC3)C2=O)c1", "values": [
      {"measurement": "IC50", "setting": "Coagulation factor X", "result": 1160, "unit": "nM"}
    ]},
    {"smiles": "COc1ccc(NC(=N[C@H]2CCCCN(CC(=O)N3CCCC3)C2=O)NC(=O)c2ccccc2)cc1", "values": [
      {"measurement": "IC50", "setting": "Coagulation factor X", "result": 246, "unit": "nM"}
    ]},
    {"smiles": "COc1ccc(NC(=N[C@H]2CCCCN(CC(=O)N3CCCC3)C2=O)NC(=O)c2cc(F)cc(F)c2)cc1", "values": [
      {"measurement": "IC50", "setting": "Coagulation factor X", "result": 208, "unit": "nM"}
    ]},
    {"smiles": "COc1ccc(NC(=N[C@H]2CCCCN(CC(=O)N3CCCC3)C2=O)NC(=O)c2ccc(F)c(F)c2)cc1", "values": [
      {"measurement": "IC50", "setting": "Coagulation factor X", "result": 272, "unit": "nM"}
    ]},
    {"smiles": "COc1ccc(NC(=N[C@H]2CCCCN(CC(=O)N3CCCC3)C2=O)NC(=O)c2cc(OC)cc(OC)c2)cc1", "values": [
      {"measurement": "IC50", "setting": "Coagulation factor X", "result": 872, "unit": "nM"}
    ]},
    {"smiles": "Cc1cccc(NC(=N[C@H]2CCCCN(CC(=O)N3CCCC3)C2=O)NC(=O)c2cc(F)cc(F)c2)c1", "values": [
      {"measurement": "IC50", "setting": "Coagulation factor X", "result": 396, "unit": "nM"}
    ]},
    {"smiles": "COc1ccc(C(=O)NC(=N[C@H]2CCCCN(CC(=O)N3CCCC3)C2=O)Nc2cccc(C)c2)cc1", "values": [
      {"measurement": "IC50", "setting": "Coagulation factor X", "result": 709, "unit": "nM"}
    ]},
    {"smiles": "Cc1cccc(NC(=N[C@H]2CCCCN(CC(=O)N3CCCC3)C2=O)NC(=O)c2cc(Cl)cc(Cl)c2)c1", "values": [
      {"measurement": "IC50", "setting": "Coagulation factor X", "result": 835, "unit": "nM"}
    ]},
    {"smiles": "COc1ccc(N/C(=N\\C(=O)c2ccc(OC)cc2)N[C@H]2CCCCN(CC(=O)N3CCCC3)C2=O)cc1", "values": [
      {"measurement": "IC50", "setting": "Coagulation factor X", "result": 227, "unit": "nM"}
    ]},
    {"smiles": "COc1ccc(N/C(=N\\C(=O)c2sc(C)nc2C)N[C@H]2CCCCN(CC(=O)N3CCCC3)C2=O)cc1", "values": [
      {"measurement": "IC50", "setting": "Coagulation factor X", "result": 386, "unit": "nM"},
      {"measurement": "Activity", "setting": "Plasma", "result": ">50", "unit": "µM"}
    ]},
    {"smiles": "Cc1cc2cc(N/C(=N\\C(=O)C3CCN(C(=O)c4ccccc4)CC3)N[C@H]3CCCCN(CC(=O)N4CCCC4)C3=O)ccc2o1", "values": [
      {"measurement": "IC50", "setting": "Coagulation factor X", "result": 10, "unit": "nM"},
      {"measurement": "Activity", "setting": "Plasma", "result": 7.5, "unit": "µM"}
    ]},
    {"smiles": "COc1ccc(N/C(=N\\C(=O)c2ccc(F)cc2)N[C@H]2CCCCN(CC(=O)N3CCCC3)C2=O)cc1", "values": [
      {"measurement": "IC50", "setting": "Coagulation factor X", "result": 368, "unit": "nM"}
    ]},
    {"smiles": "Cc1cccc(NC(=N[C@H]2CCCCN(CC(=O)N3CCCC3)C2=O)NC(=O)c2ccc(F)c(F)c2)c1", "values": [
      {"measurement": "IC50", "setting": "Coagulation factor X", "result": 271, "unit": "nM"}
    ]},
    {"smiles": "Cc1cc2cc(N/C(=N\\C(=O)c3ccno3)N[C@H]3CCCCN(CC(=O)N4CCCC4)C3=O)ccc2o1", "values": [
      {"measurement": "IC50", "setting": "Coagulation factor X", "result": 14, "unit": "nM"},
      {"measurement": "Activity", "setting": "Plasma", "result": 17.7, "unit": "µM"}
    ]}
  ]
}
